Converted amounts (≈) assume the structure as drawn. Read-outs that look alike come from different tables or passages of the source. Non-standard residues stand in square brackets, D forms with d. Residues, ends and D or L forms follow the SMILES beside them. Sar = CNCC(=O)O
Tests used:
[1] = tested on: Vesicular stomatitis virus; settings: HEL; reduces virus-induced cytopathogenicity by 50%
[2] = tested on: Herpes simplex virus-2 (G); settings: HEL; reduces virus-induced cytopathogenicity by 50%
[3] = tested on: Vaccinia virus; settings: HEL; reduces virus-induced cytopathogenicity by 50%
[4] = tested on: Herpes simplex virus-1 TK^− KOS ACV^r; settings: HEL; reduces virus-induced cytopathogenicity by 50%
[5] = tested on: Herpes simplex virus-1 (KOS); settings: HEL; reduces virus-induced cytopathogenicity by 50%
[6] = tested on: HIV-2 (EHO)
Procedure: (§1) Human T-lymphocytic CEM cells (4.5×10^5 cells per ml) were suspended in fresh cell culture medium and infected with HIV-1 (IIIB and NL4.3) or HIV-2 (ROD or EHO) at 100 CCID50 (1 CCID50 being the virus dose infective for 50% of the cell cultures) per ml of cell suspension. Then, 100 μl of the infected cell suspension were transferred to microplate wells, mixed with 100 μl of appropriate (freshly prepared) dilutions of the test compounds (i.e., at final concentrations of […]), and were further incubated at 37° C. After 4 to 5 days, giant cell formation was recorded microscopically in the CEM cell cultures.

[7] = tested on: HIV-1 (NL4.3); settings: read-out: EC50 HIV-1 NL3.4; CEM cell cultures, syncytia formation
Procedure: as §1

[8] = in vitro; settings: human
[9] = tested on: HIV-2 (ROD); assay: microbe, parasite or virus in culture; assay type: cell-based
Procedure: as §1, with “cultures. […] (See Table 1).” for “cultures.”
(§2) MT-4, C8166 or CEM cells (4 to 5×10^5 cells per ml) were suspended in fresh culture medium (RPMI-1640 medium supplemented with 10% fetal bovine serum (FBS) (BioWittaker Europe, Verviers, Belgium), 2 mM L-glutamine and […] NaHCO3). Subsequently, the cells were infected with HIV-1 (IIIB) or HIV-2(ROD) at ˜100 CCID50 (1 CCID50 being the dose infective for 50% of the cell cultures) per ml of cell suspension. Then, 100 μl of the infected cell suspension were transferred to 96-well microplate wells, mixed with 100 μl of the appropriate (5-fold) dilutions of the test compounds and further incubated at 37° C. After 4 to 5 days, giant cell formation was recorded microscopically in the CEM and C8166 cell cultures. The MT-4 cell cultures were treated with trypan blue and the number of viable cells was determined.

[10] = tested on: HIV-1 (IIIB); settings: read-out: EC50 HIV-1 IIIB; CEM cell cultures, syncytia formation, Table 1
[11] = Cytotoxicity (CC50) in C8166 cells; assay type: cell-based; settings: human, C8166 cells
[12] = Cytotoxicity (CC50) in MT-4 cells; assay type: cell-based; settings: human, MT-4 cells
[13] = tested on: HIV-2(ROD); assay: microbe, parasite or virus in culture
Procedure: as §2

[14] = tested on: HIV-1 (IIIB); assay: microbe, parasite or virus in culture; settings: Human immunodeficiency virus 1, IIIB
Procedure: as §2

[15] = tested on: human PBMC; assay: Mitogenic activity assay, [3H]dThd incorporation in human PBMC with or without PHA; assay type: cell-based; settings: concentrations up to 200 μg/ml, absence of PHA
Procedure: The mitogenic activity assay was conducted as follows. Human PBMC were isolated from buffy coats and brought in RPMI-1640 cell culture medium supplemented with 10% FCS and 2 mM L-glutamine. The cell cultures were exposed to several concentrations of the test compounds for 3 days in the absence or presence of PHA (phytohemagglutinin) (Murex Biotech Ltd., Dartford, UK) at 2 μg/ml. Subsequently, 0.25 μCi [CH3^−3H]dThd was added and, after 20 hr incubation at 37° C., the cells were precipitated in the presence of 10% TCA and the precipitate was washed twice with 10% TCA, twice with 5% TCA and once with 70% ethanol. The precipitate, containing [^3H]DNA, was then examined for radioactivity in a liquid scintillation counter.

[16] = tested on: HIV-1 (IIIB); assay: microbe, parasite or virus in culture; settings: Human immunodeficiency virus 1, IIIB, CCRF-CEM
[17] = tested on: Parainfluenza-3 virus; assay: organism not typed; settings: Vero, read-out: Minimum inhibitory concentration Parainfluenza-3 virus
[18] = tested on: Respiratory syncytial virus; assay: microbe, parasite or virus in culture; settings: human respiratory syncytial virus, HeLa, read-out: Minimum inhibitory concentration Respiratory syncytial virus
[19] = tested on: Sindbis virus; assay: microbe, parasite or virus in culture; settings: Vero, read-out: Minimum inhibitory concentration Sindbis virus
[20] = tested on: Herpes simplex virus-1 TK^− KOS ACV^r; assay: microbe, parasite or virus in culture; settings: Human alphaherpesvirus 1, HEL, read-out: Minimum inhibitory concentration Herpes simplex virus-1 TK^− KOS ACV^r
[21] = tested on: Vesicular stomatitis virus; assay: microbe, parasite or virus in culture; settings: HeLa, read-out: Minimum inhibitory concentration Vesicular stomatitis virus
[22] = tested on: Vaccinia virus; assay: microbe, parasite or virus in culture; settings: Orthopoxvirus vaccinia, HEL, read-out: Minimum inhibitory concentration Vaccinia virus
[23] = tested on: Herpes simplex virus-1 (KOS); assay: microbe, parasite or virus in culture; settings: Human alphaherpesvirus 1, HEL, read-out: Minimum inhibitory concentration Herpes simplex virus-1 (KOS)
[24] = tested on: Reovirus-1; assay: organism not typed; settings: Vero, read-out: Minimum inhibitory concentration Reovirus-1
[25] = tested on: Punta Toro virus; assay: microbe, parasite or virus in culture; settings: Vero, read-out: Minimum inhibitory concentration Punta Toro virus
[26] = tested on: Herpes simplex virus-2 (G); assay: microbe, parasite or virus in culture; settings: Human alphaherpesvirus 2, HEL, read-out: Minimum inhibitory concentration Herpes simplex virus-2 (G)
[27] = tested on: Vesicular stomatitis virus; assay: microbe, parasite or virus in culture; settings: HEL, read-out: Minimum inhibitory concentration Vesicular stomatitis virus
[28] = tested on: Coxsackie virus B4; assay: Antiviral activity in HeLa cell cultures, Coxsackie virus B4; assay type: cell-based; settings: Enterovirus B, B4, reduces virus-induced cytopathogenicity by 50%, read-out: Minimum inhibitory concentration Coxsackie virus B4
Procedure: (§3) The cytotoxicity and antiviral activity of various concentrations of G-NH2 and GPG-NH2 were evaluated in cell cultures that were infected with various types of viruses. Conventional host cell culture, viral infection, and infectivity analysis for each different type of cell and virus were followed. Compounds that were known to inhibit replication of the particular types of viruses analyzed were used as controls.

[29] = tested on: Coxsackie virus B4; assay: Antiviral activity in Vero cell cultures, Coxsackie virus B4; assay type: cell-based; settings: Enterovirus B, B4, reduces virus-induced cytopathogenicity by 50%, read-out: Minimum inhibitory concentration Coxsackie virus B4
Procedure: as §3

[30] = Stability of synthetic compounds (no method given); assay type: physicochemical
[31] = tested on: HIV (SF2 virus); assay: HIV infectivity assay, SF2-infected H9 cells, reverse transcriptase (RT) quantification in supernatant; assay type: cell-based
[32] = Human immunodeficiency virus 2, C8166, read-out: EC50 (C8166) HIV-2 (ROD), Table 19
[33] = Human immunodeficiency virus 2, C8166, read-out: EC50 (C8166) HIV-2 (ROD), Table 20
[34] = Human immunodeficiency virus 2, MT4, read-out: EC50 (MT-4) HIV-2 (ROD), Table 19
[35] = Human immunodeficiency virus 2, MT4, read-out: EC50 (MT-4) HIV-2 (ROD), Table 20
[36] = C8166, read-out: EC50 (C8166) HIV-1 (IIIB), Table 19
[37] = C8166, read-out: EC50 (C8166) HIV-1 (IIIB), Table 20
[38] = MT4, read-out: EC50 (MT-4) HIV-1 (IIIB)
[39] = MT4, read-out: EC50 (MT-4) HIV-1(IIIB)
[40] = Human immunodeficiency virus 2, CCRF-CEM, Table 19, read-out: EC50 (CEM) HIV-2 (ROD)
[41] = read-out: EC50 (CEM) HIV-1 (IIIB), Table 19
[42] = read-out: EC50 (CEM) HIV-1(IIIB), Table 20

SMILES: Nc1nc2c(ncn2COC(CO)CO)c(=O)[nH]1 [DHPG, reference compound]
- Minimum inhibitory concentration Vesicular stomatitis virus [1]: >400 µg/mL
- Minimum inhibitory concentration Herpes simplex virus-2 (G) [2]: 0.0192 µg/mL (≈ 0.0752 µM)
- Minimum inhibitory concentration Vaccinia virus [3]: 60 µg/mL (≈ 235 µM)
- Minimum inhibitory concentration Herpes simplex virus-1 TK^− KOS ACV^r [4]: 0.48 µg/mL (≈ 1.88 µM)
- Minimum inhibitory concentration Herpes simplex virus-1 (KOS) [5]: 0.0038 µg/mL (≈ 0.0149 µM)

SMILES: CNCC(=O)N1CCC[C@H]1C(=O)NCC(N)=O [SAR-PG-NH2, sarcosinylprolylglycinamide] (H-[Sar]-Pro-Gly-NH2)
- EC50 [6]: 56 µM
- EC50 [7]: 49 µM
- EC50 [8]: > 1500 µM
- EC50 ([9]; 2 (ROD)): 35 ± 9.8 µM
- EC50 [10]: 31 ± 4.9 µM

SMILES: CN1C(=O)C(C)(C)NNC1=S [Formula K]
- CC50 [11]: 896 ± 265 µM
- CC50 [12]: 906 ± 179 µM
- EC50 [13, 32]: > 580 µM
- EC50 [13, 33]: > 230 µM
- EC50 [13, 34]: > 580 µM
- EC50 [13, 35]: > 1000 µM
- EC50 [14, 36]: 346 µM
- EC50 [14, 37]: 289 ± 81 µM
- EC50 [14, 38]: > 580 µM
- EC50 [14, 39]: > 1000 µM
- CC50 at 96 hr [8]: ≥ 1150 µM
- mitogenic activity against human PBMCs [15]: non-mitogenic
- EC50 [9, 40]: 65 ± 18 µM
- EC50 [16, 41]: 115 µM
- EC50 [16, 42]: 115 µM

SMILES: NC(=O)c1ncn([C@@H]2O[C@H](CO)[C@@H](O)[C@H]2O)n1 [Ribavirin]
- EC50 [17]: 48 µg/mL (≈ 197 µM)
- EC50 [18]: 16 µg/mL (≈ 65.5 µM)
- EC50 [19]: > 400 µg/mL
- EC50 [20]: 80 µg/mL (≈ 328 µM)
- EC50 [21]: 9.6 µg/mL (≈ 39.3 µM)
- EC50 [22]: 240 µg/mL (≈ 983 µM)
- EC50 [23]: 48 µg/mL (≈ 197 µM)
- EC50 [24]: 16 µg/mL (≈ 65.5 µM)
- EC50 [25]: 48 µg/mL (≈ 197 µM)
- EC50 [26]: > 400 µg/mL
- EC50 [27]: > 400 µg/mL
- EC50 [28]: 48 µg/mL (≈ 197 µM)
- EC50 [29]: > 400 µg/mL

SMILES: NC(=O)CC[C@H](N)C(=O)N1CCC[C@H]1C(=O)NCC(N)=O [Q-PG-NH2, glutaminylprolylglycinamide] (H-Gln-Pro-Gly-NH2)
- EC50 [6]: 82 µM
- EC50 [7]: 265 µM
- EC50 [8]: > 1500 µM
- EC50 ([9]; 2 (ROD)): 89 µM
- EC50 [10]: 86 µM

SMILES: COC(N)C(N)=O (stereo not drawn) [Formula G, alpha-methoxyglycinamide]
- stability [30]: more stable than alpha-hydroxyglycinamide

SMILES: CC(C)C(N)C(=O)NC(O)C(N)=O [Formula Y, N-L-Valyl-α-Hydroxyglycinamide]
- HIV replication at 25 μM ([31]; 25 μM): neglible levels
- IC50 ([31]; Human immunodeficiency virus 1, H9, 264 h, RT quantification, day 11, read-out: IC50): ~16 µM
- stability [30]: stable

SMILES: Nc1nc2c(ncn2COCCO)c(=O)[nH]1 [ACG, reference compound]
- Minimum inhibitory concentration Vesicular stomatitis virus [1]: >400 µg/mL
- Minimum inhibitory concentration Herpes simplex virus-2 (G) [2]: 0.0768 µg/mL (≈ 0.341 µM)
- Minimum inhibitory concentration Vaccinia virus [3]: >400 µg/mL
- Minimum inhibitory concentration Herpes simplex virus-1 TK^− KOS ACV^r [4]: 9.6 µg/mL (≈ 42.6 µM)
- Minimum inhibitory concentration Herpes simplex virus-1 (KOS) [5]: 0.0768 µg/mL (≈ 0.341 µM)

SMILES: CN1C(=O)C2(CCCCC2)NNC1=S [Formula M]
- CC50 [11]: 488 ± 3.3 µM
- CC50 [12]: 455 ± 4.6 µM
- EC50 [13, 32]: 480 µM
- EC50 [13, 33]: > 190 µM
- EC50 [13, 34]: > 480 µM
- EC50 [13, 35]: > 900 µM
- EC50 [14, 36]: > 480 µM
- EC50 [14, 37]: > 190 µM
- EC50 [14, 38]: > 480 µM
- EC50 [14, 39]: > 900 µM
- CC50 at 96 hr [8]: ≥ 930 µM
- mitogenic activity against human PBMCs [15]: non-mitogenic
- EC50 [9, 40]: 48 ± 14 µM
- EC50 [16, 41]: 97 ± 42 µM
- EC50 [16, 42]: 97 ± 42 µM

From patent US20080076824A1, “Compounds That Inhibit Replication Of Human Immunodeficiency Virus” (priority 2004, published 2008)
